Measurements as given in patent US20260007758A1, “SO[…]-2 RECEPTOR (SST2R) NON-PEPTIDE DRUG CONJUGATES AND USES THEREOF” (Crinetics Pharmaceuticals, Inc., priority 2024, published 2026).

Experiments:
Format in all cases: cell-based
[1] = target: T1, SST2 (Homo sapiens, UniProt P30874); assay: PathHunter CHO-K1 SST2 Internalization Assay; conditions: PathHunter CHO-K1 SST2 cells; 90 min at 37 C; luminescence; read-out: Internalization EC50
T1 construct: host or cells: PathHunter CHO-K1 SST2 cells
How it was run: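 CHO-K1 cells expressing human SST2, 2500 cells/well, grown 48 h, then exposed 90 min at 37 C to 11-point 1:3 NDC dilutions (final top 10 uM). Beta-Glo luminescence after 60 min at room temperature; four-parameter IC50, duplicate mean, background-corrected.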

[2] = test system: NCI-H524 human small cell lung cancer cells; assay: H524 assay: inhibition of cell proliferation (CellTiter Glo); conditions: 2 h treatment, washout, additional 70 h incubation
How it was run: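 NCI-H524 cells were exposed for 2 h to NDC in an 11-point two-fold series starting at 1 uM. The drug was then washed out and cells grew a further 70 h. CellTiter Glo luminescence gave % inhibition versus untreated control, and IC50 came from a four-parameter nonlinear regression.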

[3] = target: T2, human somatostatin receptor subtype 2 (Homo sapiens, UniProt P30874); assay: Functional assay for SSTR2 agonists (HTRF cAMP); conditions: CHO-K1 cells stably expressing human SST2; NKH477-stimulated cAMP; 20 min at 37 C; read-out: hSST2 cAMP Avg EC50
T2 construct: expressed in transfected cells
How it was run: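 CHO-K1 cells stably expressing human SSTR2 treated with compound (typically 0-10,000 nM final) for 20 min at 37 °C. Lysate cAMP measured by HTRF (665/620 nm ratio), converted via standard curve; EC50 from cAMP vs concentration.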

T2 sequence (P30874 whole entry): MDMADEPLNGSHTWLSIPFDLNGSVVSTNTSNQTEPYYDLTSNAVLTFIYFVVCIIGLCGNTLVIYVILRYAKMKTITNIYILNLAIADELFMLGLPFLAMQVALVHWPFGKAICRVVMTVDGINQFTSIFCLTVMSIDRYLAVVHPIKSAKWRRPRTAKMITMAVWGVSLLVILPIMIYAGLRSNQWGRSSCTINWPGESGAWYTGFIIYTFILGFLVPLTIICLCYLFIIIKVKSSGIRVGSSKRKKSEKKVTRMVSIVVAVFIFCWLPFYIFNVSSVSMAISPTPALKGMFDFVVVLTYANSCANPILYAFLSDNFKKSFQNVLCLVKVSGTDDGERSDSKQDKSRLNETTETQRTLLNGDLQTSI
T1 sequence (P30874 whole entry): as above

Structure (SMILES)	EC50 [1]	EC50 [2]	EC50 [3]
CC[C@H](C)[C@@H]([C@@H](CC(=O)N1CCC[C@H]1[C@H](OC)[C@@H](C)C(=O)N[C@H](C)[C@@H](O)c1ccccc1)OC)N(C)C(=O)[C@@H](NC(=O)[C@H](C(C)C)N(C)C(=O)OCc1ccc(NC(=O)[C@H](CCCNC(N)=O)NC(=O)[C@@H](NC(=O)c2cc(OCCOCCOCCOCCOCCC(=O)NCCNc3ncc(-c4cc(C)cc(F)c4)c(N4CCC(N)CC4)c3-c3nc4ccc(Cl)cc4[nH]3)cc(C(=O)NCC(=O)O)c2)C(C)C)cc1)C(C)C [Compound 161]	9.1 nM	63 nM	0.32 nM
CC[C@H](C)[C@@H]([C@@H](CC(=O)N1CCC[C@H]1[C@H](OC)[C@@H](C)C(=O)N[C@H](C)[C@@H](O)c1ccccc1)OC)N(C)C(=O)[C@@H](NC(=O)[C@H](C(C)C)N(C)C(=O)OCc1ccc(NC(=O)[C@H](CCCNC(N)=O)NC(=O)[C@@H](NC(=O)c2cc(NCCOCCOCCOCCC(=O)NCCNc3ncc(-c4cc(C)cc(F)c4)c(N4CCC(N)CC4)c3-c3nc4ccc(Cl)cc4[nH]3)cc(C(=O)NCCN)c2)C(C)C)cc1)C(C)C [Compound 179]	9.8 nM	370 nM	0.54 nM
CC[C@H](C)[C@@H]([C@@H](CC(=O)N1CCC[C@H]1[C@H](OC)[C@@H](C)C(=O)N[C@H](C)[C@@H](O)c1ccccc1)OC)N(C)C(=O)[C@@H](NC(=O)[C@H](C(C)C)N(C)C(=O)OCc1ccc(NC(=O)[C@H](CCCNC(N)=O)NC(=O)[C@@H](NC(=O)[C@@H](NC(=O)CCOCCC(=O)NCCNc2ncc(-c3cc(C)cc(F)c3)c(N3CCC(N)CC3)c2-c2nc3ccc(Cl)cc3[nH]2)c2cnn(C)c2)C(C)C)c(OCC(=O)O)c1)C(C)C [Compound 203]	7.7 nM	71 nM	0.11 nM
CC[C@H](C)[C@@H]([C@@H](CC(=O)N1CCC[C@H]1[C@H](OC)[C@@H](C)C(=O)N[C@H](C)[C@@H](O)c1ccccc1)OC)N(C)C(=O)[C@@H](NC(=O)[C@H](C(C)C)N(C)C(=O)OCc1ccc(NC(=O)[C@H](CCCNC(N)=O)NC(=O)[C@@H](NC(=O)CCCC(=O)N(C)CC(=O)NCCNc2ncc(-c3cc(C)cc(F)c3)c(N3CCC(N)CC3)c2-c2nc3ccc(Cl)cc3[nH]2)C(C)C)c(O[C@@H]2O[C@H](C(=O)NCCN)[C@@H](O)[C@H](O)[C@H]2O)c1)C(C)C [Compound 209]	2.7 nM	1.5 nM	0.11 nM
CC[C@H](C)[C@@H]([C@@H](CC(=O)N1CCC[C@H]1[C@H](OC)[C@@H](C)C(=O)N[C@H](C)[C@@H](O)c1ccccc1)OC)N(C)C(=O)[C@@H](NC(=O)[C@H](C(C)C)N(C)C(=O)OCc1ccc(NC(=O)[C@H](CCCNC(N)=O)NC(=O)[C@@H](NC(=O)CCCCC(=O)NCCNc2ncc(-c3cc(C)cc(F)c3)c(N3CCC(N)CC3)c2-c2nc3ccc(Cl)cc3[nH]2)C(C)C)cc1C(=O)NCC(=O)O)C(C)C [Compound 72]	4.7 nM	40 nM	0.11 nM
CC[C@H](C)[C@@H]([C@@H](CC(=O)N1CCC[C@H]1[C@H](OC)[C@@H](C)C(=O)N[C@H](C)[C@@H](O)c1ccccc1)OC)N(C)C(=O)[C@@H](NC(=O)[C@H](C(C)C)N(C)C(=O)OCc1ccc(NC(=O)[C@H](C)NC(=O)[C@@H](NC(=O)C[C@@H](N)C(=O)NCCOCCC(=O)NCCNc2ncc(-c3cc(C)cc(F)c3)c(N3CCC(NC)CC3)c2-c2nc3ccc(Cl)cc3[nH]2)C(C)C)c(O[C@@H]2O[C@H](C(=O)O)[C@@H](O)[C@H](O)[C@H]2O)c1)C(C)C [Compound 120]	5.2 nM	20 nM	0.088 nM
CC[C@H](C)[C@@H]([C@@H](CC(=O)N1CCC[C@H]1[C@H](OC)[C@@H](C)C(=O)N[C@H](C)[C@@H](O)c1ccccc1)OC)N(C)C(=O)[C@@H](NC(=O)[C@H](C(C)C)N(C)C(=O)OCc1ccc(NC(=O)[C@H](CCCNC(N)=O)NC(=O)[C@@H](NC(=O)CCOCCC(=O)NCCNc2ncc(-c3cc(C)cc(F)c3)c(N3CCC(N)CC3)c2-c2nc3ccc(Cl)cc3[nH]2)C(C)C)c(OCCN)c1)C(C)C [Compound 10]	2.7 nM	0.76 nM	0.21 nM
CC[C@H](C)[C@@H]([C@@H](CC(=O)N1CCC[C@H]1[C@H](OC)[C@@H](C)C(=O)N[C@H](C)[C@@H](O)c1ccccc1)OC)N(C)C(=O)[C@@H](NC(=O)[C@H](C(C)C)N(C)C(=O)OCc1ccc(NC(=O)[C@H](CCCNC(N)=O)NC(=O)[C@@H](NC(=O)c2cc(NCCOCCC(=O)NCCNc3ncc(-c4cc(C)cc(F)c4)c(N4CCC(N)CC4)c3-c3nc4ccc(Cl)cc4[nH]3)cc(C(=O)NCCN)c2)C(C)C)cc1)C(C)C [Compound 184]	1.8 nM	240 nM	0.063 nM
CC[C@H](C)[C@@H]([C@@H](CC(=O)N1CCC[C@H]1[C@H](OC)[C@@H](C)C(=O)N[C@H](C)[C@@H](O)c1ccccc1)OC)N(C)C(=O)[C@@H](NC(=O)[C@H](C(C)C)N(C)C(=O)OCc1ccc(NC(=O)[C@H](CCCNC(N)=O)NC(=O)[C@@H](NC(=O)c2cc(NC(=O)CCOCCC(=O)NCCNc3ncc(-c4cc(C)cc(F)c4)c(N4CCC(N)CC4)c3-c3nc4ccc(Cl)cc4[nH]3)cc(C(=O)NCC(=O)O)c2)C(C)C)cc1)C(C)C [Compound 149]	12 nM	100 nM	0.033 nM
CC[C@H](C)[C@@H]([C@@H](CC(=O)N1CCC[C@H]1[C@H](OC)[C@@H](C)C(=O)N[C@H](C)[C@@H](O)c1ccccc1)OC)N(C)C(=O)[C@@H](NC(=O)[C@H](C(C)C)N(C)C(=O)OCc1ccc(NC(=O)[C@H](CCCNC(N)=O)NC(=O)[C@@H](NC(=O)CCOCCC(=O)NCCNc2ncc(-c3cc(C)cc(F)c3)c(N3CCC(N)CC3)c2-c2nc3ccc(Cl)cc3[nH]2)C(C)C)c(O[C@@H]2O[C@H](C(=O)NCCNC(=O)CCC(=O)NS(=O)(=O)c3ccc4ccccc4c3)[C@@H](O)[C@H](O)[C@H]2O)c1)C(C)C [Compound 224]	3.2 nM	27 nM	0.068 nM
CC[C@H](C)[C@@H]([C@@H](CC(=O)N1CCC[C@H]1[C@H](OC)[C@@H](C)C(=O)N[C@H](C)[C@@H](O)c1ccccc1)OC)N(C)C(=O)[C@@H](NC(=O)C(C(C)C)N(C)C(=O)OCc1ccc(NC(=O)[C@H](CCCNC(N)=O)NC(=O)[C@@H](NC(=O)CCOCCC(=O)NCCNc2ncc(-c3cc(C)cc(F)c3)c(N3CCC(N)CC3)c2-c2nc3ccc(Cl)cc3[nH]2)C(C)C)c(O[C@@H]2O[C@H](C(=O)N3CC(N)C3)[C@@H](O)[C@H](O)[C@H]2O)c1)C(C)C (stereo partly drawn) [Compound 232]	5.2 nM	5 nM	0.15 nM
CC[C@H](C)[C@@H]([C@@H](CC(=O)N1CCC[C@H]1[C@H](OC)[C@@H](C)C(=O)N[C@H](C)[C@@H](O)c1ccccc1)OC)N(C)C(=O)[C@@H](NC(=O)[C@H](C(C)C)N(C)C(=O)OCc1ccc(NC(=O)[C@H](CCCNC(N)=O)NC(=O)[C@@H](NC(=O)c2cc(NC(=O)CCCC(=O)NCCNc3ncc(-c4cc(C)cc(F)c4)c(N4CCC(N)CC4)c3-c3nc4ccc(Cl)cc4[nH]3)cc(C(=O)NC[C@@H](N)C(=O)O)c2)C(C)C)cc1)C(C)C [Compound 170]	12 nM	22 nM	0.31 nM
CC[C@H](C)[C@@H]([C@@H](CC(=O)N1CCC[C@H]1[C@H](OC)[C@@H](C)C(=O)N[C@H](C)[C@@H](O)c1ccccc1)OC)N(C)C(=O)[C@@H](NC(=O)[C@H](C(C)C)N(C)C(=O)OCc1ccc(NC(=O)[C@H](C)NC(=O)[C@@H](NC(=O)CCOCCC(=O)NCCNc2ncc(-c3cc(C)cc(F)c3)c(N3CCC(N)CC3)c2-c2cc3ccc(C#N)cc3[nH]2)C(C)C)c(O[C@@H]2O[C@H](C(=O)O)[C@@H](O)[C@H](O)[C@H]2O)c1)C(C)C [Compound 119]	11 nM	34 nM	0.11 nM
CC[C@H](C)[C@@H]([C@@H](CC(=O)N1CCC[C@H]1[C@H](OC)[C@@H](C)C(=O)N[C@H](C)[C@@H](O)c1ccccc1)OC)N(C)C(=O)[C@@H](NC(=O)C(C(C)C)N(C)C(=O)OCc1ccc(NC(=O)[C@H](CCCNC(N)=O)NC(=O)[C@@H](NC(=O)CCOCCC(=O)NCCNc2ncc(-c3cc(C)cc(F)c3)c(N3CCC(N)CC3)c2-c2nc3ccc(Cl)cc3[nH]2)C(C)C)c(O[C@@H]2O[C@H](C(=O)N3CCCCC3)[C@@H](O)[C@H](O)[C@H]2O)c1)C(C)C (stereo partly drawn) [Compound 228]	10 nM	36 nM	0.26 nM
CC[C@H](C)[C@@H]([C@@H](CC(=O)N1CCC[C@H]1[C@H](OC)[C@@H](C)C(=O)N[C@H](C)[C@@H](O)c1ccccc1)OC)N(C)C(=O)[C@@H](NC(=O)[C@H](C(C)C)N(C)C(=O)OCc1ccc(NC(=O)[C@H](C)NC(=O)[C@@H](NC(=O)CCOCCC(=O)NCCNc2ncc(-c3cc(C)cc(F)c3)c(N3CCC(N)CC3)c2-c2nc3ccc(Cl)cc3[nH]2)C(C)C)c(O)c1)C(C)C [Compound 17]	3.8 nM	5.4 nM	0.44 nM
CC[C@H](C)[C@@H]([C@@H](CC(=O)N1CCC[C@H]1[C@H](OC)[C@@H](C)C(=O)N[C@H](C)[C@@H](O)c1ccccc1)OC)N(C)C(=O)[C@@H](NC(=O)[C@H](C(C)C)N(C)C(=O)OCc1ccc(NC(=O)[C@H](CCCNC(N)=O)NC(=O)[C@@H](NC(=O)c2ccc(NC(=O)CCOCCC(=O)NCCNc3ncc(-c4cc(C)cc(F)c4)c(N4CCC(N)CC4)c3-c3nc4ccc(Cl)cc4[nH]3)cc2O[C@@H]2OC(C(=O)O)[C@@H](O)[C@H](O)[C@H]2O)C(C)C)cc1)C(C)C (stereo partly drawn) [Compound 182]	11 nM	2300 nM	0.093 nM
